Measured values published in patent publication US20260242419A1, “A CYCLIC PEPTIDE FOR TRAPPING INTERLEUKIN-1 BETA” (Merck Sharp & Dohme LLC, priority 2023, published 2026).
Starred links: 1 amine or outer side, 2 acyl side, 3 side chain; linkers in the order of their positions; H or OH if unused. Non-standard residues stand in square brackets, D forms with d. Residues, ends and D or L forms follow the SMILES beside them. Phe(4-(5-CO2H-2-pyrimidyl)) = N[C@@H](Cc1ccc(-c2ncc(C(=O)O)cn2)cc1)C(=O)O; Phe(4-(4-Ac-piperazinyl)) = CC(=O)N1CCN(c2ccc(C[C@H](N)C(=O)O)cc2)CC1; dPro(4R-(4-pyridylmethyl)) = O=C(O)[C@H]1C[C@@H](Cc2ccncc2)CN1; Trp(βS-Me,4-F) = C[C@@H](c1c[nH]c2cccc(F)c12)[C@H](N)C(=O)O; Bip(4'-CONH2) = NC(=O)c1ccc(-c2ccc(C[C@H](N)C(=O)O)cc2)cc1; Bip(4'-COOH) = N[C@@H](Cc1ccc(-c2ccc(C(=O)O)cc2)cc1)C(=O)O; Ala(1-bicyclo(1.1.1)pentyl) = N[C@@H](CC12CC(C1)C2)C(=O)O; dPro(4R-Bzl(4-F)) = O=C(O)[C@H]1C[C@@H](Cc2ccc(F)cc2)CN1; dPro(3S-(4-F-Bn)) = O=C(O)[C@@H]1NCC[C@@H]1Cc1ccc(F)cc1; Bip(4'-Cl) = N[C@@H](Cc1ccc(-c2ccc(Cl)cc2)cc1)C(=O)O; Ala(pyrimidin-5-yl) = N[C@@H](Cc1cncnc1)C(=O)O; Phe(4-COOH) = N[C@@H](Cc1ccc(C(=O)O)cc1)C(=O)O; Bip = N[C@@H](Cc1ccc(-c2ccccc2)cc1)C(=O)O; Pro(cis-4-F) = O=C(O)[C@@H]1C[C@H](F)CN1; Ala(4-THP) = N[C@@H](CC1CCOCC1)C(=O)O; X6 = O=C([C@H](Cc1ccncn1)N[*:1])[*:2]; d(αMeD) = C[C@@](N)(CC(=O)O)C(=O)O; 4Pal = N[C@@H](Cc1ccncc1)C(=O)O; aThr = C[C@H](O)[C@H](N)C(=O)O; d(αMeS) = C[C@@](N)(CO)C(=O)O; Cba = N[C@@H](CC1CCC1)C(=O)O; Dab = NCC[C@H](N)C(=O)O; Aib = CC(C)(N)C(=O)O

Each molecule was assayed against T1, IL-1β (Homo sapiens, UniProt P01584) (assay: IL-6 assay in MRC5 cells: inhibition of IL-1β induced IL-6 secretion (AlphaLISA)). Settings: inhibition of IL-1β induced IL-6 secretion in MRC5 cells; read-out: MRC5 IC50.
T1 construct: purchased BioLegend 579404
T1 sequence (P01584 117-269): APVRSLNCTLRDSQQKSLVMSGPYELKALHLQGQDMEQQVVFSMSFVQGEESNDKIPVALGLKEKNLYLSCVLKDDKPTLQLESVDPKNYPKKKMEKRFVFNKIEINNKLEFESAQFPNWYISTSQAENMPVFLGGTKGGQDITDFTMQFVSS
Assay type: cell-based
How it was run: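 Compound was pre-incubated 1 h at ambient temperature with recombinant human IL-1β at 2λ EC80 before adding human lung fibroblast MRC5 cells (3000/well) in EMEM with 0.025% BSA. After overnight culture at 37 °C, 5% CO2, secreted IL-6 in conditioned medium was measured by AlphaLISA; IC50 from 4-parameter logistic fits.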
With `C[C@@H](c1c[nH]c2cccc(F)c12)[C@@H]1NC(=O)[C@@H]2C[C@H](F)CN2C(=O)CNC(=O)[C@H](Cc2ccc(C(=O)O)cc2)NC(=O)[C@H](CC23CC(C2)C3)NC(=O)[C@H](Cc2ccc(-c3ccc(C(N)=O)cc3)cc2)NC(=O)[C@H]2C[C@@H](Cc3ccncc3)CN2C(=O)CNC(=O)[C@H](CCN)NC(=O)[C@H](CCC(N)=O)NC(=O)[C@H](Cc2cncnc2)NC(=O)[C@@](C)(CC(=O)O)NC(=O)[C@H](Cc2c[nH]c3ccccc23)NC(=O)[C@H](CO)NC(=O)C(C)(C)NC1=O` [Example 342] (cyclo([Bip(4'-CONH2)][Ala(1-bicyclo(1.1.1)pentyl)][Phe(4-COOH)]G[Pro(cis-4-F)][Trp(βS-Me,4-F)][Aib]SW[d(αMeD)][Ala(pyrimidin-5-yl)]Q[Dab]G[dPro(4R-(4-pyridylmethyl))])) the IC50 was 0.022 nM.
With `C[C@@H](c1c[nH]c2cccc(F)c12)[C@@H]1NC(=O)[C@@H]2C[C@H](F)CN2C(=O)CNC(=O)[C@H](Cc2ccc(C(=O)O)cc2)NC(=O)[C@H](CC23CC(C2)C3)NC(=O)[C@H](Cc2ccc(-c3ccccc3)cc2)NC(=O)[C@H]2C[C@@H](Cc3ccncc3)CN2C(=O)CNC(=O)[C@H](CCN)NC(=O)[C@H](CCC(N)=O)NC(=O)[C@H](Cc2cncnc2)NC(=O)[C@@](C)(CC(=O)O)NC(=O)[C@H](Cc2c[nH]c3ccccc23)NC(=O)[C@H](CO)NC(=O)C(C)(C)NC1=O` [Example 343] (cyclo([Bip][Ala(1-bicyclo(1.1.1)pentyl)][Phe(4-COOH)]G[Pro(cis-4-F)][Trp(βS-Me,4-F)][Aib]SW[d(αMeD)][Ala(pyrimidin-5-yl)]Q[Dab]G[dPro(4R-(4-pyridylmethyl))])) the IC50 was 0.026 nM.
With `C[C@@H](c1c[nH]c2cccc(F)c12)[C@@H]1NC(=O)[C@@H]2C[C@H](F)CN2C(=O)CNC(=O)[C@H](Cc2ccc(C(=O)O)cc2)NC(=O)[C@H](Cc2ccncc2)NC(=O)[C@H](Cc2ccc(-c3ccc(Cl)cc3)cc2)NC(=O)[C@H]2C[C@@H](Cc3ccncc3)CN2C(=O)CNC(=O)[C@H](CCN)NC(=O)[C@H](CCC(N)=O)NC(=O)[C@H](Cc2cncnc2)NC(=O)[C@@](C)(CC(=O)O)NC(=O)[C@H](Cc2c[nH]c3ccccc23)NC(=O)[C@H](CO)NC(=O)C(C)(C)NC1=O` [Example 344] (cyclo([Bip(4'-Cl)][4Pal][Phe(4-COOH)]G[Pro(cis-4-F)][Trp(βS-Me,4-F)][Aib]SW[d(αMeD)][Ala(pyrimidin-5-yl)]Q[Dab]G[dPro(4R-(4-pyridylmethyl))])) the IC50 was 0.022 nM.
`C[C@@H](c1c[nH]c2cccc(F)c12)[C@@H]1NC(=O)[C@@H]2C[C@H](F)CN2C(=O)CNC(=O)[C@H](Cc2ccc(C(=O)O)cc2)NC(=O)[C@H](Cc2ccncc2)NC(=O)[C@H](Cc2ccc(-c3ccc(C(=O)O)cc3)cc2)NC(=O)[C@H]2C[C@@H](Cc3ccc(F)cc3)CN2C(=O)CNC(=O)[C@H](CCN)NC(=O)[C@H](CCC(N)=O)NC(=O)[C@H](Cc2ccncn2)NC(=O)C(C)(C)NC(=O)[C@H](Cc2c[nH]c3ccccc23)NC(=O)[C@H](CCC(=O)O)NC(=O)C(C)(C)NC1=O` [Example 345] (cyclo([Bip(4'-COOH)][4Pal][Phe(4-COOH)]G[Pro(cis-4-F)][Trp(βS-Me,4-F)][Aib]EW[Aib][X6]Q[Dab]G[dPro(4R-Bzl(4-F))])) gave an IC50 of 0.012 nM.
With `C[C@@H](c1c[nH]c2cccc(F)c12)[C@@H]1NC(=O)[C@@H]2C[C@H](F)CN2C(=O)CNC(=O)[C@H](Cc2ccc(C(=O)O)cc2)NC(=O)[C@H](Cc2ccncc2)NC(=O)[C@H](Cc2ccc(-c3ccc(C(=O)O)cc3)cc2)NC(=O)[C@H]2[C@@H](Cc3ccc(F)cc3)CCN2C(=O)CNC(=O)[C@H](CCN)NC(=O)[C@H](CCC(N)=O)NC(=O)[C@H](Cc2cncnc2)NC(=O)C(C)(C)NC(=O)[C@H](Cc2c[nH]c3ccccc23)NC(=O)[C@H](CCC(=O)O)NC(=O)C(C)(C)NC1=O` [Example 346] (cyclo([Bip(4'-COOH)][4Pal][Phe(4-COOH)]G[Pro(cis-4-F)][Trp(βS-Me,4-F)][Aib]EW[Aib][Ala(pyrimidin-5-yl)]Q[Dab]G[dPro(3S-(4-F-Bn))])) the IC50 was 0.01 nM.
Molecule `CC(C)C[C@@H]1NC(=O)[C@@](C)(CO)NC(=O)[C@H](Cc2c[nH]c3ccccc23)NC(=O)[C@H](CO)NC(=O)C(C)(C)NC(=O)[C@H]([C@@H](C)c2c[nH]c3cccc(F)c23)NC(=O)[C@@H]2C[C@H](F)CN2C(=O)CNC(=O)[C@H](Cc2ccc(C(=O)O)cc2)NC(=O)[C@H](Cc2ccncc2)NC(=O)[C@H](Cc2ccc(-c3ccc(C(=O)O)cc3)cc2)NC(=O)[C@H]2C[C@@H](Cc3ccncc3)CN2C(=O)CNC(=O)[C@H](CCN)NC(=O)[C@H](CCC(N)=O)NC1=O` [Example 347] (cyclo([Bip(4'-COOH)][4Pal][Phe(4-COOH)]G[Pro(cis-4-F)][Trp(βS-Me,4-F)][Aib]SW[d(αMeS)]LQ[Dab]G[dPro(4R-(4-pyridylmethyl))])) has an IC50 of 0.025 nM.
Work on `C[C@@H](c1c[nH]c2cccc(F)c12)[C@@H]1NC(=O)[C@@H]2C[C@H](F)CN2C(=O)CNC(=O)[C@H](Cc2ccc(C(=O)O)cc2)NC(=O)[C@H](CC23CC(C2)C3)NC(=O)[C@H](Cc2ccc(-c3ccc(C(=O)O)cc3)cc2)NC(=O)[C@H]2C[C@@H](Cc3ccncc3)CN2C(=O)CNC(=O)[C@H](CCN)NC(=O)[C@H](CCC(N)=O)NC(=O)[C@H](CC2CCC2)NC(=O)[C@@](C)(CC(=O)O)NC(=O)[C@H](Cc2c[nH]c3ccccc23)NC(=O)[C@H](CO)NC(=O)C(C)(C)NC1=O` [Example 348] (cyclo([Bip(4'-COOH)][Ala(1-bicyclo(1.1.1)pentyl)][Phe(4-COOH)]G[Pro(cis-4-F)][Trp(βS-Me,4-F)][Aib]SW[d(αMeD)][Cba]Q[Dab]G[dPro(4R-(4-pyridylmethyl))])) yielded an IC50 of 0.018 nM.
`CC(C)C[C@@H]1NC(=O)[C@@](C)(CC(=O)O)NC(=O)[C@H](Cc2c[nH]c3ccccc23)NC(=O)[C@H](CO)NC(=O)C(C)(C)NC(=O)[C@H]([C@@H](C)c2c[nH]c3cccc(F)c23)NC(=O)[C@@H]2C[C@H](F)CN2C(=O)CNC(=O)[C@H](Cc2ccc(C(=O)O)cc2)NC(=O)[C@H](CC23CC(C2)C3)NC(=O)[C@H](Cc2ccc(-c3ccc(C(=O)O)cc3)cc2)NC(=O)[C@H]2C[C@@H](Cc3ccncc3)CN2C(=O)CNC(=O)[C@H](CCN)NC(=O)[C@H](CCC(N)=O)NC1=O` [Example 349] (cyclo([Bip(4'-COOH)][Ala(1-bicyclo(1.1.1)pentyl)][Phe(4-COOH)]G[Pro(cis-4-F)][Trp(βS-Me,4-F)][Aib]SW[d(αMeD)]LQ[Dab]G[dPro(4R-(4-pyridylmethyl))])) was tested, and the IC50 was 0.017 nM.
Molecule `CC(=O)N1CCN(c2ccc(C[C@@H]3NC(=O)[C@H]4C[C@@H](Cc5ccncc5)CN4C(=O)CNC(=O)[C@H](CCN)NC(=O)[C@H](CCC(N)=O)NC(=O)[C@H](Cc4cncnc4)NC(=O)[C@@](C)(CO)NC(=O)[C@H](Cc4c[nH]c5ccccc45)NC(=O)[C@H](CO)NC(=O)C(C)(C)NC(=O)[C@H]([C@@H](C)c4c[nH]c5cccc(F)c45)NC(=O)[C@@H]4C[C@H](F)CN4C(=O)CNC(=O)[C@H](Cc4ccc(C(=O)O)cc4)NC(=O)[C@H](Cc4ccncc4)NC3=O)cc2)CC1` [Example 350] (cyclo([Phe(4-(4-Ac-piperazinyl))][4Pal][Phe(4-COOH)]G[Pro(cis-4-F)][Trp(βS-Me,4-F)][Aib]SW[d(αMeS)][Ala(pyrimidin-5-yl)]Q[Dab]G[dPro(4R-(4-pyridylmethyl))])) has an IC50 of 0.02 nM.
`C[C@@H](c1c[nH]c2cccc(F)c12)[C@@H]1NC(=O)[C@@H]2C[C@H](F)CN2C(=O)CNC(=O)[C@H](Cc2ccc(C(=O)O)cc2)NC(=O)[C@H](Cc2ccncc2)NC(=O)[C@H](Cc2ccc(-c3ncc(C(=O)O)cn3)cc2)NC(=O)[C@H]2C[C@@H](Cc3ccncc3)CN2C(=O)CNC(=O)[C@H](CCN)NC(=O)[C@H](CCC(N)=O)NC(=O)[C@H](CC2CCOCC2)NC(=O)[C@@](C)(CC(=O)O)NC(=O)[C@H](Cc2c[nH]c3ccccc23)NC(=O)[C@H](CO)NC(=O)C(C)(C)NC1=O` [Example 351] (cyclo([Phe(4-(5-CO2H-2-pyrimidyl))][4Pal][Phe(4-COOH)]G[Pro(cis-4-F)][Trp(βS-Me,4-F)][Aib]SW[d(αMeD)][Ala(4-THP)]Q[Dab]G[dPro(4R-(4-pyridylmethyl))])) showed an IC50 of 0.016 nM.
`C[C@H](O)[C@@H]1NC(=O)C(C)(C)NC(=O)[C@H]([C@@H](C)c2c[nH]c3cccc(F)c23)NC(=O)[C@@H]2C[C@H](F)CN2C(=O)CNC(=O)[C@H](Cc2ccc(C(=O)O)cc2)NC(=O)[C@H](Cc2ccncc2)NC(=O)[C@H](Cc2ccc(-c3ccc(C(=O)O)cc3)cc2)NC(=O)[C@H]2C[C@@H](Cc3ccncc3)CN2C(=O)CNC(=O)[C@H](CCN)NC(=O)[C@H](CCC(N)=O)NC(=O)[C@H]([C@H](C)O)NC(=O)[C@@](C)(CO)NC(=O)[C@H](Cc2c[nH]c3ccccc23)NC1=O` [Example 352] (cyclo([Bip(4'-COOH)][4Pal][Phe(4-COOH)]G[Pro(cis-4-F)][Trp(βS-Me,4-F)][Aib][aThr]W[d(αMeS)][aThr]Q[Dab]G[dPro(4R-(4-pyridylmethyl))])) was tested, and the IC50 was 0.023 nM.
For `C[C@H](O)[C@@H]1NC(=O)C(C)(C)NC(=O)[C@H]([C@@H](C)c2c[nH]c3cccc(F)c23)NC(=O)[C@@H]2C[C@H](F)CN2C(=O)CNC(=O)[C@H](Cc2ccc(C(=O)O)cc2)NC(=O)[C@H](Cc2ccncc2)NC(=O)[C@H](Cc2ccc(-c3ccc(C(=O)O)cc3)cc2)NC(=O)[C@H]2C[C@@H](Cc3ccncc3)CN2C(=O)CNC(=O)[C@H](CCN)NC(=O)[C@H](CCC(N)=O)NC(=O)[C@H](CC2CCOCC2)NC(=O)[C@@](C)(CC(=O)O)NC(=O)[C@H](Cc2c[nH]c3ccccc23)NC1=O` [Example 353] (cyclo([Bip(4'-COOH)][4Pal][Phe(4-COOH)]G[Pro(cis-4-F)][Trp(βS-Me,4-F)][Aib][aThr]W[d(αMeD)][Ala(4-THP)]Q[Dab]G[dPro(4R-(4-pyridylmethyl))])), the IC50 was 0.017 nM.
